# Where two headings read alike, the source gives them in different places.
# Tests used:
# humanDOR = humanDOR (Homo sapiens (Human), UniProt P41143); experiment: Receptor binding, [3H]diprenorphine
# hKOR = hKOR (Homo sapiens (Human), UniProt P41145); experiment: Receptor binding, [3H]diprenorphine
# μOR = μOR (Homo sapiens (Human), UniProt P35372); experiment: cell-based; assay type: cell-based
# [1] = biological target: human μOR β-arrestin2 recruitment + GRK2 (Homo sapiens (Human), UniProt P35372); experiment: β-Arrestin2 recruitment with GRK2 co-expression (BRET); assay type: cell-based; details: GRK2 co-expressed
# [2] = biological target: μOR β-arrestin2 recruitment (Homo sapiens (Human), UniProt P35372); experiment: β-Arrestin2 recruitment without GRK2 co-expression (BRET); assay type: cell-based
# [3] = read-out: binding affinity Ki [nM] hDOR
# Chain of humanDOR (P41143 whole entry): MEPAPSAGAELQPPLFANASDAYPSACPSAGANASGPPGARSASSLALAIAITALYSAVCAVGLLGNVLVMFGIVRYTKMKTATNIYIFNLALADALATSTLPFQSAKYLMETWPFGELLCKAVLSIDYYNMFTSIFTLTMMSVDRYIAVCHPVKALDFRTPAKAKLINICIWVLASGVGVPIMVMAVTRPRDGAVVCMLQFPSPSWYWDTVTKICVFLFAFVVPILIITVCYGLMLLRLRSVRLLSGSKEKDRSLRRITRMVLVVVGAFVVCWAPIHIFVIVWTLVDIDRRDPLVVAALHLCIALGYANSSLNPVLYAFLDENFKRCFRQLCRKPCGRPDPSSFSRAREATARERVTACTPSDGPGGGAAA
# Chain of hKOR (P41145 whole entry): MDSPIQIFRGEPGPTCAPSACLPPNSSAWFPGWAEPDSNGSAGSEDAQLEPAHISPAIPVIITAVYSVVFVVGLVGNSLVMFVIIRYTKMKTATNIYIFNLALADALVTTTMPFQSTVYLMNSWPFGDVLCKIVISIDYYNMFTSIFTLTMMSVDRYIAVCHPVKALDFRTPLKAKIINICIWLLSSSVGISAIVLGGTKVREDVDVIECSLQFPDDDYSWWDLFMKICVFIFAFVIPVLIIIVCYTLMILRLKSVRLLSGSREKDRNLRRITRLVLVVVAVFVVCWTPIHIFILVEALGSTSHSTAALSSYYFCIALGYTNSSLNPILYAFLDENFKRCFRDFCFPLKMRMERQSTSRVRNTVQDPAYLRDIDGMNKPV
SMILES,Ki (humanDOR) [nM],Arrestin + GRK2 pEC50 [1],Gi/o pEC50 (μOR),other results
C[C@H](Cc1ccsc1)NC(=O)NC[C@H](Cc1ccccc1)N(C)C (stereo in doubt) [BD 127LR],1800 ± 150,,,Ki (humanDOR; [3]): 1800 nM; Ki (hKOR; binding affinity Ki [nM] hKOR): 1300 nM; Ki (hKOR; hKOR [3H]dyprenorphine Ki): 1300 ± 300 nM
"C[C@H](Cc1ccsc1)NC(=O)NC[C@H](Cc1ccc(O)cc1)N(C)C [(S,R)-21, 1-[(S)-2-(Dimethylamino)-3-(4-hydroxyphenyl)propyl]-3-((R)-1-(thiophen-3-yl)propan-2-yl)urea]",,,,"Gi/o activation / μOR agonist activity (μOR): more potent partial agonist of the μOR as compared to (S,S)-21"
"C[C@@H](Cc1ccsc1)NC(=O)NC[C@H](Cc1ccccc1)N(C)C [(S,S)-12, 1-[(S)-2-(Dimethylamino)-3-phenylpropyl]-3-[(S)-1-(thiophen-3-yl)propan-2-yl]urea]",,,,Gi/o activation / μOR agonist activity (μOR): most potent and efficacious Gi/o signaling agonist among the four isomers
"CN(CCCl)[C@H](CNC(=O)NCCc1ccccc1)Cc1ccc(O)cc1 [DD185, (S)-1-(2-((2-chloroethyl)(methyl)amino)-3-(4-hydroxyphenyl)propyl)-3-phenethylurea]",360,,,
"CN(C)[C@H](CNC(=O)NC(C)(C)Cc1ccsc1)Cc1ccc(O)cc1 [DD 32L, (S)-1-(2-(dimethylamino)-3-(4-hydroxyphenyl)propyl)-3-(2-methyl-1-(thiophen-3-yl)propan-2-yl)urea]",,7.306,7.629,Arrestin pEC50 [2]: 8.282
"CN(C)[C@H](CNC(=O)NC(C)(C)Cc1ccccc1)Cc1ccc(O)cc1 [DD 33L, (S)-1-(2-(dimethylamino)-3-(4-hydroxyphenyl)propyl)-3-(2-methyl-1-phenylpropan-2-yl)urea]",,6.874,7.008,
"C[C@@H](Cc1ccsc1)NC(=O)NC[C@H](Cc1cccc(O)c1)N(C)C [DD 47LS, 1-((S)-2-(dimethylamino)-3-(3-hydroxyphenyl)propyl)-3-((S)-1-(thiophen-3-yl)propan-2-yl)urea]",,6.676,7.77,Arrestin pEC50 [2]: 6.447
"C[C@H](NC(=O)NC[C@H](Cc1ccc(O)cc1)N(C)C)c1ccccc1 [DD 53LS, 1-((S)-2-(dimethylamino)-3-(4-hydroxyphenyl)propyl)-3-((S)-1-phenylethyl)urea]",,7.059,8.512,Arrestin pEC50 [2]: 7.168
"C[C@@H](Cc1ccccc1)NC(=O)NC[C@H](Cc1ccc(O)cc1)N(C)C [DD 61L-B, 1-((S)-2-(dimethylamino)-3-(4-hydroxyphenyl)propyl)-3-((S)-1-phenylpropan-2-yl)urea]",,6.556,7.45,Arrestin pEC50 [2]: 7.075
C=CCN(CC(Cc1ccccc1)N(C)C)C(=O)N[C@@H](C)Cc1ccsc1 (some centres unmarked) [DD 93A],,,,Ki (humanDOR; [3]): ~15000 nM
C=CCN(CC(Cc1ccccc1)N(C)C)C(=O)N[C@H](C)Cc1ccsc1 (some centres unmarked) [DD 93B],,,,Ki (humanDOR; [3]): ~15000 nM
"CN(C)[C@H](CNC(=O)NCCc1cn(Cc2ccccc2)nn1)Cc1ccc(O)cc1 [DD 154, (S)-1-(2-(1-benzyl-1H-1,2,3-triazol-4-yl)ethyl)-3-(2-(dimethylamino)-3-(4-hydroxyphenyl)propyl)urea]",580,,,
"CN(C)[C@H](CNC(=O)NCCc1cn(CCOCCOCCN=[N+]=[N-])nn1)Cc1ccc(O)cc1 [DD 161, (S)-1-(2-(1-(2-(2-(2-azidoethoxy)ethoxy)ethyl)-1H-1,2,3-triazol-4-yl)ethyl)-3-(2-(dimethylamino)-3-(4-hydroxyphenyl)propyl)urea]",3000,,,Ki (hKOR): 1200 nM
"CN(C)[C@H](CNC(=O)NCCc1cn(CCOCCOCCOCCN=[N+]=[N-])nn1)Cc1ccc(O)cc1 [DD 165, (S)-1-(2-(1-(2-(2-(2-(2-azidoethoxy)ethoxy)ethoxy)ethyl)-1H-1,2,3-triazol-4-yl)ethyl)-3-(2-(dimethylamino)-3-(4-hydroxyphenyl)propyl)urea]",3900,,,Ki (hKOR; binding affinity Ki [nM] hKOR): 2900 nM
CN(CC1CC1)[C@H](CNC(=O)NCCc1ccccc1)Cc1ccc(O)cc1 [DD 184],,,6.253,

# From patent publication US10702498B2 (priority 2015, dated 2020)
